Experimental data taken from the OPERA property sets (Mansouri et al. 2018).

Details: not given

Going from O=C(NCN1CCOCC1)c1cnccn1 to C[C@H](CN1CCOCC1)C(C(=O)N1CCCC1)(c1ccccc1)c1ccccc1, the melting point rises from 118 °C to 182 °C.

Compared with C=C=O, CC(C)(CC(=O)O)CC(=O)O is higher in melting point: -151 °C for the first, 104 °C for the second.

Going from C#C[C@]1(O)CC[C@H]2[C@@H]3CCc4cc(O)ccc4[C@H]3CC[C@@]21C to O=[N+]([O-])c1ccc2c3c(cccc13)CC2, the melting point falls from 183 °C to 100 °C.

Going from CC(=O)Oc1ccc(C(c2ccc(OC(C)=O)cc2)c2ccccn2)cc1 to COc1ccc([C@@H]2Sc3ccccc3N(CCN(C)C)C(=O)[C@@H]2OC(C)=O)cc1, the melting point rises from 134 °C to 210 °C.

Going from Cc1c([N+](=O)[O-])cc2c(c1[N+](=O)[O-])C(C)(C)CC2(C)C to Cc1c(C)c(C)c(O)c(C)c1C, the melting point falls from 132 °C to 128 °C.

Compared with Nc1cccc(-c2cccc(N)c2)c1, O=C(O)c1ccccc1Nc1cccc(C(F)(F)F)c1 is higher in melting point: 93.5 °C for the first, 134 °C for the second.

First: CS(=O)(=O)OCCCNCCCOS(C)(=O)=O
Second: CCCCCCCC(=O)OC
The melting point of the first is higher: 116 °C for the first, -40 °C for the second.

Compared with NCCS(=O)(=O)O, CCS(=O)(=O)c1ccc(F)cc1 is lower in melting point: 328 °C for the first, 41 °C for the second.

Compared with ClCc1cc(Cl)cc(Cl)c1, Clc1cc(Cl)c2c(c1)oc1cc(Cl)cc(Cl)c12 is higher in melting point: 36 °C for the first, 207 °C for the second.

First: CCC1(N2CCCCC2)C(=O)NC(=O)NC1=O
Second: C=CC1(C(C)CCC)C(=O)NC(=O)NC1=O (configuration not stated)
The melting point of the first is higher: 215 °C for the first, 91 °C for the second.

First: N#CCc1cccc(CC#N)c1
Second: c1ccc(CNCc2ccccc2)cc1
The melting point of the first is higher: 33.5 °C for the first, -26 °C for the second.

First: Cc1ccccc1NCc1ccccc1
Second: CCCCCCCCc1ccccc1
The melting point of the first is higher: 60 °C for the first, -36 °C for the second.

Going from Cc1cn([C@H]2C[C@H](O)[C@@H](CO)O2)c(=O)[nH]c1=O to O=C(Cl)c1cccc(C(=O)Cl)c1, the melting point falls from 186 °C to 43.5 °C.

Compared with ClC1=C(Cl)C2(Cl)C(CBr)CC1(Cl)C2(Cl)Cl (configuration not stated), O=Cc1ccc(Cl)c(Cl)c1 is lower in melting point: 77 °C for the first, 44 °C for the second.

First: c1cn[nH]c1
Second: Cc1ncccn1
The melting point of the first is higher: 68 °C for the first, -4 °C for the second.

First: Brc1ccc2[nH]ccc2c1
Second: Cn1c(=S)sc2ccccc21
The melting point of the first is higher: 91 °C for the first, 90 °C for the second.

Compared with CC(C)CN, CC(C)SC(C)C is higher in melting point: -85 °C for the first, -78.1 °C for the second.

Going from Clc1cc2c(cc1Cl)Oc1ccccc1O2 to CCCCCC(C)OC(=O)COc1ccc(Cl)c2cccnc12 (configuration not stated), the melting point falls from 163 °C to 69.4 °C.

Going from CCCCCCCOC(=O)CCC to CC(C#N)CCC#N (configuration not stated), the melting point rises from -57.5 °C to -45 °C.

Compared with C=C=O, CC(=O)OCCCl is higher in boiling point: -49.8 °C for the first, 145 °C for the second.

Going from COc1cccc(CC(C)=O)c1 to O=C(Cl)c1cccc(C(=O)Cl)c1, the boiling point rises from 259 °C to 276 °C.

First: CN1CCCc2ccccc21
Second: Cn1c(=S)sc2ccccc21
The boiling point of the first is lower: 246 °C for the first, 335 °C for the second.

First: C/C=C(\C)C=O
Second: C/C=C(\C)C(=O)OC
The boiling point of the first is lower: 117 °C for the first, 139 °C for the second.

Going from CCOC(C)(C)OCC to CCCCC(C)(C)CCC, the boiling point rises from 114 °C to 158 °C.

First: Cc1ccccc1NCc1ccccc1
Second: CCCCCCCCc1ccccc1
The boiling point of the first is higher: 302 °C for the first, 264 °C for the second.

First: COCC(C)Cl (configuration not stated)
Second: CC(C)CN
The boiling point of the first is higher: 99 °C for the first, 68.5 °C for the second.

Compared with O=Cc1ccc(Cl)c(Cl)c1, Cc1ncccn1 is lower in boiling point: 248 °C for the first, 138 °C for the second.

Compared with c1cn[nH]c1, Brc1nccs1 is lower in boiling point: 187 °C for the first, 171 °C for the second.

Going from Cc1c(C)c(C)c(O)c(C)c1C to CC(C)(C)OC(C)(C)C, the boiling point falls from 267 °C to 107 °C.

Going from CCC1CCC(=O)CC1 to CCCCCCCOC(=O)CCC, the boiling point rises from 193 °C to 226 °C.

First: CCCCCCCC(=O)OC
Second: CCOCCl
The boiling point of the first is higher: 193 °C for the first, 83 °C for the second.

Going from CC(C#N)CCC#N (configuration not stated) to CC(C)SC(C)C, the boiling point falls from 263 °C to 120 °C.

First: FC(F)COC(F)F
Second: FC(F)(Br)C(F)(F)C(F)(F)C(F)(F)C(F)(F)C(F)(F)C(F)(F)Br
The boiling point of the first is lower: 55.3 °C for the first, 159 °C for the second.

Going from C=C=O to CC(C#N)CCC#N (configuration not stated), the log10 vapour pressure (mmHg) falls from 4.02 to -2.29.

First: Clc1cc(Cl)c2c(c1)oc1cc(Cl)cc(Cl)c12
Second: Clc1cc2c(cc1Cl)Oc1ccccc1O2
The log10 vapour pressure (mmHg) of the first is lower: -7.73 for the first, -5.53 for the second.

Compared with CCCCCCCCc1ccccc1, CCCCCCCC(=O)OC is higher in log10 vapour pressure (mmHg): -1.95 for the first, -0.267 for the second.

First: CC(C)CN
Second: CC(C)SC(C)C
The log10 vapour pressure (mmHg) of the first is higher: 2.14 for the first, 1.28 for the second.

Compared with CC(C)(C)OC(C)(C)C, CCCCCC(C)OC(=O)COc1ccc(Cl)c2cccnc12 (configuration not stated) is lower in log10 vapour pressure (mmHg): 1.51 for the first, -7.4 for the second.

First: c1ccc(CNCc2ccccc2)cc1
Second: FC(F)COC(F)F
The log10 vapour pressure (mmHg) of the first is lower: -3.1 for the first, 2.36 for the second.

Cc1cccc(NC(N)=O)c1 gave a log10 Koc (L/kg) of 1.56.

In the case of COC(=O)CC(=O)C(C)(C)C, the ready biodegradability is reported as “not readily biodegradable”.
For CC(C)CN, the ready biodegradability was “readily biodegradable”.
In the case of CCCCCCCC(=O)OC, the ready biodegradability is reported as “not readily biodegradable”.

Clc1cc2c(cc1Cl)Oc1ccccc1O2 showed a log10 Koa of 8.5.

Compared with CCCCCCCC(=O)OC, CC(C)SC(C)C is higher in log10 Henry constant (atm·m³/mol): -3.11 for the first, -2.48 for the second.

Same assay, conditions: fish

CCCCCCCCc1ccccc1 and Clc1cc2c(cc1Cl)Oc1ccccc1O2 are within 0.2 log units of each other in log10 biotransformation half-life (days): 0.22 for the first, 0.33 for the second.
